target: Bromodomain-containing protein 4 (Homo sapiens, UniProt O60885); assay: Displacement of Alexafluor 647-conjugated PFI-1 from N-terminal-His6-tagged human BRD4 BD1 domain (44 to 170 residues) incubated for 30 mins by fluorescence polarization assay

Row | IC50 | Structure (SMILES)
1 | 790 nM | CCc1nnc2ccc(N(C)C[C@H]3CC[C@H](N)CC3)nn12
2 | > 30000 nM | CNCCN(C)c1ccc2nnc(C)n2n1
3 | 2420 nM | Cc1nnc2ccc(N(C)CCC3CCNCC3)nn12
4 | 11800 nM | CN(C[C@H]1CC[C@H](N)CC1)c1ccc2nncn2n1

From ChEMBL document CHEMBL4834448, “Toward the assembly and characterization of an encoded library hit confirmation platform: Bead-Assisted Ligand Isolation Mass Spectrometry (BALI-MS)” (Bioorg Med Chem, 2021)
